Literature values as cited in US10912819B2, “Neuroprotective peptides derived from activity-dependent neuroprotective protein for treatment of neurological diseases” (priority 2016, dated 2021).
Where two headings read alike, the source gives them in different places.

Legend:
cornea = details: Kusano et al. 2010; cited from earlier work
[1] = not told; cited from earlier work
rabbits = details: cited from earlier work
[2] = ambient temperatures and atmospheric pressures, cited from earlier work

benzalkonium chloride
effect on cell survival (cornea): adversely affected cell survival
effect on corneal permeability (cornea): affect corneal permeability

NC(=O)CC[C@@H]1NC(=O)[C@H](Cc2ccccc2)NC(=O)[C@H](Cc2ccc(O)cc2)NC(=O)CCSSC[C@@H](C(=O)N2CCC[C@H]2C(=O)N[C@H](CCCN=C(N)N)C(=O)NCC(N)=O)NC(=O)[C@H](CC(N)=O)NC1=O [DDAVP, desmopressin acetate]
extent of permeation increase by preservative [1]: chlorobutanol<benzalkonium<sorbate
permeation in vitro in the presence of preservatives [1]: always increased

CC(C)(O)C(Cl)(Cl)Cl [chlorobutanol, trichloro-2-methyl-2-propanol]
skin irritation (rabbits; rabbit skin, 24 hour exposure): Non-irritant
signs of toxicity (rabbits; rabbit, in vivo, 2000 mg/kg): no signs of toxicity
acute dermal LD50 (rabbits; rabbits): greater than 2000 mg/kg
mortality (rabbits; single dermal application of 2000 mg/kg): 10%
effect on corneal permeability (cornea): not chlorobutanol affect corneal permeability
period of stability ([2]; Anhydrous): 3 years
period of stability ([2]; Hemihydrate): 5 years
